The test system of experiment [1] is mouse B-cell lymphoma cell line A20. The experiment in a line: Antitumor effect in allograft (syngeneic) mouse model with mouse B-cell lymphoma cell line A20. In kind it is in vivo. On the procedure: The antitumor effect of the compound according to the present invention was examined by using a syngeneic mouse tumor model with the mouse B-cell lymphoma cell line A20 (subcutaneous transplantation).
To RPMI-1640 medium (Life Technologies, No. A1049101), 10% FBS (HyClone), 0.05 mM 2-mercaptoethanol, and 1% penicillin streptomycin (NACALAI TESQUE, INC.) were added to prepare a cell culture medium (hereinafter, referred to as the medium 3). A20 cell (ATCC) were cultured with the medium 3 in a flask in a 5% CO2 incubator.
The density of A20 cells was adjusted with the medium 2 to 5×10^7 cells/mL; thus a cell preparation solution for transplantation was produced. […]
Forced oral administration of 0.1 mL of the test substance or a solvent per 10 g body weight on that day (15 mg/kg) was performed to each mouse with transplanted cancer cells (six mice per group) twice per day (interval: 6 hours or longer) from day 3 to day 14 after the transplantation. […] The mice were followed up until day 46 after the transplantation, and the tumor diameter of each mouse was measured to calculate the tumor volume by using the same formula as in Example 1 several times per week for evaluation of the antitumor effect.
In addition, tumor was excised from each mouse on day 46 after the transplantation, and the tumor weight was measured.

Experiment [2] concerns mouse colorectal cancer cell line CT26.WT. In words: Antitumor effect in allograft (syngeneic) mouse model with mouse colorectal cancer cell line CT26.WT. The experiment is classed as in vivo. Conditions: for tumor growth (time course of tumor volume): CT26.WT subcutaneous, FIG. 1. On the procedure:
The antitumor effect of the compound according to the present invention was examined by using a syngeneic mouse tumor model with the mouse colorectal cancer cell line CT26.WT (subcutaneous transplantation).
To RPMI-1640 medium (Life Technologies, No. A1049101), 10% FBS (Biowest) and 1% penicillin streptomycin (NACALAI TESQUE, INC.) were added to prepare a cell culture medium (hereinafter, referred to as the medium 1). CT26.WT cells (ATCC) were cultured with the medium 1 in a flask in a 5% CO2 incubator.
The cell density of CT26.WT cells was adjusted with RPMI-1640 medium (containing 1% penicillin streptomycin, hereinafter, referred to as the medium 2) to 5×10^6 cells/mL; thus a cell preparation solution for transplantation was produced. Into the back of each BALB/cCrslc mouse (female, 8-week-old, Japan SLC, Inc.), 0.1 mL of the cell preparation solution for transplantation was subcutaneously transplanted. On day 3 after the transplantation of cancer cells, the cancer-bearing mice were grouped in such a manner that the means of tumor volume (see a calculation formula below) approximated to each other.
As a sample solution for administration of the test substance, a 1.5 mg/mL solution was prepared. The test substance (71.9 mg) was dissolved in DMSO (2.4 mL, NACALAI TESQUE, INC.), to which polyethylene glycol #400 (24.0 mL, NACALAI TESQUE, INC.) was added and mixed well, and 21.5 mL of 30% (w/v) aqueous solution of 2-hydroxypropyl-β-cyclodextrin (HP-β-CD, Wacker Chemical AG) was then added thereto to produce a 1.5 mg/mL sample solution for administration. […]
Forced oral administration of 0.1 mL of the test substance or a solvent per 10 g body weight on that day (15 mg/kg) was performed to each mouse with transplanted cancer cells (six mice per group) twice per day (interval: 6 hours or longer) from day 3 to day 21 after the transplantation. […] The mice were followed up until day 48 after the transplantation, and the tumor diameter of each mouse was measured to calculate the tumor volume by using the following formula several times per week for evaluation of the antitumor effect. […]

Consider `Nc1nc(-c2cccc(-n3ccc4cc(C5CC5)cc(F)c4c3=O)c2CO)c2cc(C3=CCN(C4COC4)CC3)[nH]c2n1` [Compound (I-A), 2-(3-{2-amino-6-[1-(oxetan-3-yl)-1,2,3,6-tetrahydropyridin-4-yl]-7H-pyrrolo[2,3-d]pyrimidin-4-yl}-2-(hydroxymethyl)phenyl)-6-cyclopropyl-8-fluoroisoquinolin-1(2H)-one], for which the “tumor growth / tumor weight on day 46 after the transplantation” value in experiment [1] (I-A 15 mg/kg oral twice per day (day 3 to 14) in combination with anti-PD-1 antibody 10 mg/kg i.p. twice per week, A20 subcutaneous, FIG. 2) is recorded as “significant tumor growth suppression/tumor regression effect”. In addition, the “complete regression of tumor (mice with transplanted tumor)” value in experiment [1] (I-A 15 mg/kg oral twice per day in combination with anti-PD-1 antibody 10 mg/kg i.p., A20, six mice per group) is “five of the six”; in experiment [2] (I-A 15 mg/kg oral twice per day in combination with anti-PD-1 antibody 10 mg/kg i.p., CT26.WT, six mice per group), “five of the six”. Moreover, the “tumor growth (time course of tumor volume)” value in experiment [2] (I-A 15 mg/kg oral twice per day in combination with anti-PD-1 antibody 10 mg/kg i.p. twice per week) is reported as “significant tumor growth suppression/tumor regression effect”; in experiment [2] (I-A alone, 15 mg/kg oral twice per day, day 3 to 21, BALB/c mice, followed to day 48), “suppressed tumor growth”.

These data come from patent publication US20230405006A1, “COMBINATION PHARMACEUTICAL COMPOSITION AND TREATMENT METHOD” (CARNA BIOSCIENCES, INC., priority 2020, published 2023).
